Results published in patent US9340577B2, “HLA binding motifs and peptides and their uses” (priority 1992, dated 2016).
No end group written: not given here.

Assays:
Experiment in all cases: biochemical
Format in all cases: binding
A*6801 = A*6801 (Homo sapiens, UniProt P04439, A269V/D185E/E176V/E277Q/E87N/F33Y/G231S/I121M/I166T/I218V/L180W/L300P/L318F/N151K/P208A/P217A/Q86R/R169H/T345S)
A31 (A*3101) = A31 (A*3101) (Homo sapiens, UniProt P04439, A270S/D185E/E176V/E277Q/F33T/G231S/G80R/H175R/I121M/I218V/I322F/K168Q/L300P/L318F/M331R/P217A/Q94H/R138Q/T323A/T345S/T97I/V358M)
HLA-A3.2 (A*0301) = HLA-A3.2 (A*0301) (Homo sapiens, UniProt P04439)
A*3301 = A*3301 (Homo sapiens, UniProt P04439, A270S/D185E/E176V/E277Q/E87N/F33T/G231S/H175R/I121M/I218V/I322F/K168Q/K210R/L300P/L318F/M331R/P217A/Q86R/Q94H/R138Q/T323A/T345S/T97I/V358M/Y195H)
HLA-A11 (A*1101) = HLA-A11 (A*1101) (Homo sapiens, UniProt P04439, A114D/D185E/E176A/F33Y/L180Q/S129P/T187R)

Sequence	IC50 (A*6801)	IC50 (A31 (A*3101))	IC50 (HLA-A3.2 (A*0301))	IC50 (A*3301)	IC50 (HLA-A11 (A*1101))
AFADLTVVYR [Peptide 78.0058]	0.039 µM	0.14 µM	> 20 µM	0.249 µM	
AFKDLFVVYK [Peptide 88.0024]	0.576 µM	0.032 µM	3.26 µM	0.093 µM	
AFTDLTIVYR [Peptide 78.0052]	0.21 µM	0.81 µM	> 20 µM	0.817 µM	
AILGHIVSPR [Peptide 9017.0225]	0.092 µM	0.0046 µM	0.014 µM	0.074 µM	
ATNCTNKQR [Peptide 1589.20]		0.051 µM	1.83 µM	13 µM	
DSNAQAFLK [Peptide 88.0379]	0.039 µM	> 20 µM	> 20 µM	0.02 µM	
EFTAFLVAFK [Peptide 88.0193]	0.98 µM		7.48 µM	0.127 µM	
EVHIPLGDAR [Peptide 9017.0217]	0.0095 µM	9.92 µM	9.39 µM		
GQGVSIEWRK [Peptide 9017.0219]	2.21 µM	8.01 µM	15 µM	> 20 µM	
GQWIQSRCEK [Peptide 88.0166]	> 20 µM		0.32 µM	4.92 µM	
GVRRATTSTK [Peptide 88.0210]	18.3 µM	3.63 µM	0.0061 µM	> 20 µM	
HLFGYSFYK [Peptide 76.0190]		0.027 µM	0.0054 µM	0.033 µM	
ILTAFNSSHK [Peptide 1589.03]	6.39 µM		0.012 µM	> 20 µM	
IMCLRFLSK [Peptide 1571.12]	12.9 µM	2.3 µM	0.011 µM	2.62 µM	
KLFLKGVPKK [Peptide 1587.40]	> 20 µM	1.04 µM	0.016 µM	> 20 µM	
KLTEDRWNK [Peptide 9017.0108]	> 20 µM	0.055 µM		> 20 µM	0.042 µM
KMFCQLAR [Peptide 1556.53]	0.249 µM	0.035 µM	0.022 µM		
KQIVMFLRY [Peptide 88.0330]	2.26 µM	4.39 µM		6.4 µM	0.097 µM
KQLCDLLIR [Peptide 1513.14]	> 20 µM	0.024 µM		6.9 µM	1.68 µM
KQLQHTPSPY [Peptide 88.0204]	> 20 µM	> 20 µM	0.117 µM	> 20 µM	
KQRFHNIRGR [Peptide 78.0083]		0.178 µM	2.04 µM	4.44 µM	
KTLLQQYCLY [Peptide 88.0130]	7.03 µM	2.92 µM	0.206 µM	14.4 µM	
KTVRLIKFLY [Peptide 9017.0197]	12 µM	1.29 µM		6.65 µM	0.235 µM
KVCLRLLSK [Peptide 78.0302]	> 20 µM	0.525 µM		> 20 µM	0.23 µM

Sequence	IC50 (A*6801)	IC50 (A31 (A*3101))	IC50 (HLA-A3.2 (A*0301))	IC50 (A*3301)	IC50 (HLA-A11 (A*1101))
KVSEFRWYRY [Peptide 78.0053]	1.91 µM	0.011 µM		7.07 µM	0.024 µM
LLCGPANTGK [Peptide 88.0195]	1.9 µM	3.65 µM	0.137 µM	> 20 µM	
LQGLAQSRYK [Peptide 88.0201]	> 20 µM	4.01 µM	1.1 µM	> 20 µM	
LTALIKPKK [Peptide 9017.0100]	0.027 µM	2.48 µM		1.11 µM	0.071 µM
LTALIKPKKR [Peptide 9017.0231]	0.039 µM	1.3 µM	6.46 µM	8.72 µM	
LTARNVLVK [Peptide 9012.0213]	0.052 µM	> 20 µM	0.023 µM	> 20 µM	
LTKMFCQLAK [Peptide 1556.51]	0.173 µM	2.38 µM	0.94 µM	12.6 µM	
LTYDSEWQR [Peptide 1589.04]	0.014 µM		0.888 µM		
LTYISTSQR [Peptide 1589.19]	0.00076 µM	0.039 µM	0.014 µM	0.079 µM	
LVKHHMYVSK [Peptide 9017.0216]	0.017 µM	0.347 µM	0.574 µM		
MLIEPPKLR [Peptide 88.0366]	0.012 µM	3.16 µM		0.15 µM	2.88 µM
MTLESILRR [Peptide 9012.0215]	0.015 µM	0.243 µM		0.094 µM	0.014 µM
MVVLLLVRYK [Peptide 1587.04]	0.72 µM		2.63 µM	4.48 µM	
NTKANILYK [Peptide 88.0358]	0.1 µM		2.12 µM	0.693 µM	
NTMHYTNWK [Peptide 1589.16]	0.011 µM	4.92 µM		0.402 µM	0.011 µM
NVCVSWKYK [Peptide 88.0383]	0.628 µM	0.265 µM		2.46 µM	0.927 µM
PVRPQVPLR [Peptide 66.0063]			> 20 µM		
QVNCKGIYY [Peptide 88.0408]	> 20 µM	> 20 µM		> 20 µM	1.62 µM
RAHSSHLR [Peptide 1556.71]	1.72 µM	0.04 µM	1.91 µM		
RQLFLNTVK [Peptide 1589.44]	16.2 µM	0.087 µM		> 20 µM	0.039 µM
RQQFLKTVK [Peptide 1589.33]	> 20 µM	0.045 µM	1.32 µM		
RVHSSHLKSKK [Peptide 1556.75]	2.15 µM	0.3 µM		12 µM	0.02 µM
SFFSRTWCK [Peptide 88.0363]	0.066 µM	0.012 µM		0.004 µM	0.016 µM
SQACALYWFR [Peptide 88.0192]	0.085 µM	0.042 µM	4.66 µM		

Sequence	IC50 (A*6801)	IC50 (A31 (A*3101))	IC50 (HLA-A3.2 (A*0301))	IC50 (A*3301)	IC50 (HLA-A11 (A*1101))
SQISYWQLIR [Peptide 88.0220]	0.934 µM		2.61 µM	> 20 µM	
SSLARRHMAR [Peptide 9017.0193]	0.869 µM	0.0048 µM		0.19 µM	0.928 µM
STTETADPK [Peptide 88.0441]	0.074 µM	3.58 µM		> 20 µM	0.017 µM
SVCMGGMNR [Peptide 1556.60]		0.092 µM	0.157 µM	0.078 µM	
SVFQNLQVIK [Peptide 9012.0231]	0.016 µM	3.56 µM		6.22 µM	0.011 µM
TFPNPFPFDK [Peptide 88.0162]	1.11 µM	2.26 µM		1.83 µM	0.221 µM
TIVYIEYRK [Peptide 9017.0118]	0.018 µM	13.7 µM	8.83 µM		
TLSAELPK [Peptide 1556.24]	> 20 µM	> 20 µM		> 20 µM	0.102 µM
TLTYISTSQR [Peptide 88.0211]	0.056 µM	0.688 µM		1.01 µM	8.27 µM
TSNECTNNK [Peptide 1589.31]		8.91 µM	4.79 µM	> 20 µM	
TTLEKLTNK [Peptide 78.0283]	2.56 µM	0.598 µM		0.469 µM	0.042 µM
TVTVSAELPK [Peptide 1556.16]		> 20 µM	3.43 µM	> 20 µM	
VLCTYSPALNK [Peptide 1556.36]	14.7 µM	4.8 µM		> 20 µM	0.15 µM
VLMWKFDSR [Peptide 9017.0066]	0.516 µM	0.072 µM		0.063 µM	0.883 µM
VQFKSECEK [Peptide 88.0419]	> 20 µM	2.68 µM		4.77 µM	0.02 µM
VQVYFDGNK [Peptide 88.0399]		> 20 µM	2.05 µM	> 20 µM	
VTVYDGVPVWK [Peptide 1539.09]	0.362 µM	18.3 µM		> 20 µM	0.019 µM
VTVYYGVPVRR [Peptide 1525.07]	0.032 µM	0.059 µM		0.795 µM	0.271 µM
WFYVQAIVDK [Peptide 88.0140]	19.5 µM	> 20 µM		> 20 µM	12.9 µM
WLSEPQKCFK [Peptide 88.0236]		2.34 µM	1.69 µM	0.617 µM	
YLTAPTGCLK [Peptide 1589.15]	2.56 µM	> 20 µM		> 20 µM	0.573 µM
YSVYGTTLEK [Peptide 78.0054]	0.036 µM	> 20 µM		> 20 µM	0.1 µM
